Where “and” joins values, the source holds several entries; their conditions need not be identical. Equal values may be shown once.
Experiments:
[1] = tested on: spinal cord CD4+ and Foxp3+ T cells; assay: Flow cytometry of spinal cord mononuclear cells of mice with EAE; format: in vivo, mouse
Excerpt: Spinal cord mononuclear cells were derived as previously described in Korn et al. “Myelin-specific regulatory T cells accumulate in the CNS but fail to control autoimmune inflammation” Nat. Med. 13:423-431 (2007) and stained for CD4 (FITC α-CD4 (GK1.5) BD Pharmingen) and Foxp3 (APC α-FoxP3 (FJK-16s; E-Bioscience), or stimulated in culture for 4 hrs with phorbol myristyl acetate and ionomycin prior to staining for Thy1.2 (PE-Cy7 anti-CD 90.2; E-Biosciences) and intracellular IFNγ (APC αIFNγ; BD Pharmingen) and IL-17 (Alexa Fluor 488 α-IL-17A; BD Pharmingen).
To characterize mechanisms by which PE DHC may enhance autoimmune disease in vivo, the experimental studies tested whether the PE DHC-mediated enhancement of EAE was associated with alterations in T cell populations at a site of disease. WT mice were immunized with the usual EAE-inducing protocol and treated on Day 0 with EtOH or PE DHC (250 ng i.p.). Within 5 days after onset of EAE, mice were sacrificed and exsanguinated, their spinal cords were removed, and the mononuclear cells were derived from the spinal cords. These cells were analyzed directly for CD4 and Foxp3 expression by flow cytometry or were stimulated with PMA and ionomycin for 4 hours and then, gating on Thy1.2+ cells, analyzed for intra-cellular interferon gamma (IFNγ) and IL-17 by flow cytometry. […] However, the percentage of CD4+ T cells within the total mononuclear cell populations derived from the spinal cords of PE DHC-treated mice was, on average, greater than the percentage in EtOH-treated mice (as illustrated in Table 2). […] The mean percentage of spinal cord cells that were CD4+ was 41% in EtOH-treated mice and, on average, 6.7% of these were Foxp3+. In contrast, the mean percentage of spinal cord cells that were CD4+ T cells was 52% in PE DHC-treated mice and, on average, 4.3% of these were Foxp3+. It has been reported in Korn et al. “Myelin-specific regulatory T cells accumulate in the CNS but fail to control autoimmune inflammation” Nat. Med. 13:423-431 (2007) that the percentage of spinal cord CD4+ Foxp3+ T cells increased as the disease progressed. […] Based on this observation, it was unlikely that the decrease in the percentage of Foxp3+ in PE-DHC-treated mice was related to differences in disease duration.

[2] = tested on: naïve CD4+CD25− T cells with T cell-depleted splenocytes (Tds); assay: In vitro generation of Th17 T cells; format: cell-based, mouse; conditions: PE DHC 20 μg/ml sonicated liposomes; WT or TLR2−/− Tds; anti-CD3, GM-CSF, TGF-β; 5 days
Protocol: CD4+CD25− T cells (Teff) were derived from WT mice using magnetic bead purification (Miltenyi Biotec, Auburn, Calif.). T cell-depleted splenocytes (Tds) were derived from WT or TLR2^−/− mice using magnetic bead purification followed by irradiation (2600R). Teff (0.25×10^6/well) and Tds (0.75×10^6/well) were cultured in 24-well plates with anti-CD3 antibody (1 μg/ml), GM-CSF (20 ng/ml) (Pierce Inc., Thermo Fisher Scientific, Rockford, Ill.) and recombinant TGF-β (2 ng/ml) (R&D). In addition, LPS (2 μg/ml), MMP (5 μg/ml) or P. gingivalis PE DHC (20 μg/ml of sonicated liposome preparations) were added to wells to stimulate the secretion of IL-6. Cultures were harvested after 5 days, stimulated in culture for 4 hrs with phorbol myristyl acetate and ionomycin and stained for Thy1.2, intracellular IFNγ, and IL-17 and analyzed by FACS after gating on Thy 1.2+ cells.
PE DHC's ability to induce IL-6 secretion was characterized by testing its ability to induce Th17 T cell generation from cultures of naïve CD4+ CD25-T cells activated in the presence of APCs (T cell depleted splenocytes; Tds) and TGF-β. See Bettelli et al. “T(H)-17 cells in the circle of immunity and autoimmunity” Nat. Immunol. 2007, 8:345-350.

[3] = Recovery of 3-OH isoC17:0 fatty acid from brains of mice with EAE (GC-MS); format: in vivo, mouse; conditions: mice that received PE DHC and had a disease score greater than 3.0, versus PBS or EtOH controls
Protocol: Mice treated with PBS, EtOH or with 25 ng, 250 ng, or 2.5 μg PE DHC were sacrificed after day 20 post-EAE immunization. The brains were removed and extracted for phospholipids according to the method of Bligh and Dyer as previously described in Nichols “Distribution of 3-hydroxy iC17:0 in subgingival plaque and gingival tissue samples: Relationship to adult periodontitis” Infect. Immun. 62:3753-3760 (1994). Lipid extracts were dissolved in hexane isopropanol:water (6:8:0.75, v/v/v/) and three 0.5 mg aliquots were dispensed into glass tubes supplemented with 30 ng of isobranched C20:0. […] Lipids were treated to form pentofluorobenzyl ester, trimethylsilyl ether derivatives and analyzed by negative ion chemical ionization GC-MS, as described in Nichols (1994). Fatty acid recovery was quantified by selected ion monitoring for characteristic fatty acid negative ions. The data were expressed as picograms of 3-OH isobranched (iso)C17:0 per 0.5 mg of total brain lipid extracted.
The cumulative disease index (CDI) was obtained by summing the daily average disease scores through Day 20. A mean of these daily disease scores (Mean Daily Disease) (+/−SEM) was calculated based on the 20 days of observation. […] Bacterial fatty acid levels in brain lipid extracts for each treatment group were evaluated using least squares linear regression analysis that included calculation of correlation coefficients. […]

For “phosphoethanolamine dihydroceramide [PE DHC]”, which “Total number of mononuclear cells obtained from the spinal cords, versus EtOH” value ([1]; WT mice, PE DHC 250 ng i.p.) is on record?
The value was “no significant difference”.

And the “Percentages of spinal cord CD4+ T cells staining for intra-cellular IFNγ or IL-17, versus EtOH” value ([1]; WT mice, PE DHC 250 ng i.p., PMA and ionomycin 4 hours)?
Its value is “not significantly different”.

And the “DISEASE GRADE” value ([1]; individual WT mice at sacrifice, PE DHC 250 ng i.p. Day 0)?
Its value is 3.3 (2×) and 3.5 and 2.9 (2×) and 3.0.

And the “% CD4+ in spinal cord” value ([1]; individual WT mice, PE DHC 250 ng i.p. Day 0, 1-5 days after onset of EAE, of total mononuclear cells)?
Its value is 72.00% and 38.00% and 68.86% and 49.54% and 40.83% and 46.50%.

And the “% Foxp3+ in spinal cord” value ([1]; individual WT mice, PE DHC 250 ng i.p. Day 0, after gating on CD4+ T cells)?
The value was 4.53% and 7.52% and 2.75% and 3.45% and 3.21% and 4.27%.

What about the “Generation of Th17 T cells” value [2] of the same substance?
Its value is “resulted in the generation of Th17 T cells in cultures containing WT but not TLR2^−/− Tds”.

And the “Brain level of 3-OH isoC17:0 fatty acid” value [3]?
The value was “higher levels of 3-OH isoC17:0 fatty acid”.

— patent US20160084855A1, “Compositions and Methods for Modulation and Detection of Immune and Inflammatory Responses” (UNIVERSITY OF CONNECTICUT, priority 2013, published 2016)
